# Test results reported in patent US20090105305A1, “Therapeutic Agents - 550” (AstraZeneca AB, priority 2006, published 2009).
# Biological target: T1, human Fatty Acid Synthase (Homo sapiens, UniProt P49327)
# T1 construct: made in house
# Experiment: Human FAS enzyme assay (decrease in NADPH fluorescence)
# Format: biochemical
# Conditions: % inhibition at a concentration of 100 micromolar
# Method in brief: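 In-house human FAS (0.4 μg) was preincubated 15 min at RT with compound and NADPH (added at 166.6 μM) in 0.1 M Tris pH 7.5, 1 mM glutathione, 0.05% BSA. Malonyl-/acetyl-CoA (500/150 μM in substrate mix) was then added for 60 min. Readout was NADPH fluorescence loss (ex 340/em 460) over a time-zero read, with IC50 from a sigmoid fit.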
# T1 sequence (P49327 whole entry): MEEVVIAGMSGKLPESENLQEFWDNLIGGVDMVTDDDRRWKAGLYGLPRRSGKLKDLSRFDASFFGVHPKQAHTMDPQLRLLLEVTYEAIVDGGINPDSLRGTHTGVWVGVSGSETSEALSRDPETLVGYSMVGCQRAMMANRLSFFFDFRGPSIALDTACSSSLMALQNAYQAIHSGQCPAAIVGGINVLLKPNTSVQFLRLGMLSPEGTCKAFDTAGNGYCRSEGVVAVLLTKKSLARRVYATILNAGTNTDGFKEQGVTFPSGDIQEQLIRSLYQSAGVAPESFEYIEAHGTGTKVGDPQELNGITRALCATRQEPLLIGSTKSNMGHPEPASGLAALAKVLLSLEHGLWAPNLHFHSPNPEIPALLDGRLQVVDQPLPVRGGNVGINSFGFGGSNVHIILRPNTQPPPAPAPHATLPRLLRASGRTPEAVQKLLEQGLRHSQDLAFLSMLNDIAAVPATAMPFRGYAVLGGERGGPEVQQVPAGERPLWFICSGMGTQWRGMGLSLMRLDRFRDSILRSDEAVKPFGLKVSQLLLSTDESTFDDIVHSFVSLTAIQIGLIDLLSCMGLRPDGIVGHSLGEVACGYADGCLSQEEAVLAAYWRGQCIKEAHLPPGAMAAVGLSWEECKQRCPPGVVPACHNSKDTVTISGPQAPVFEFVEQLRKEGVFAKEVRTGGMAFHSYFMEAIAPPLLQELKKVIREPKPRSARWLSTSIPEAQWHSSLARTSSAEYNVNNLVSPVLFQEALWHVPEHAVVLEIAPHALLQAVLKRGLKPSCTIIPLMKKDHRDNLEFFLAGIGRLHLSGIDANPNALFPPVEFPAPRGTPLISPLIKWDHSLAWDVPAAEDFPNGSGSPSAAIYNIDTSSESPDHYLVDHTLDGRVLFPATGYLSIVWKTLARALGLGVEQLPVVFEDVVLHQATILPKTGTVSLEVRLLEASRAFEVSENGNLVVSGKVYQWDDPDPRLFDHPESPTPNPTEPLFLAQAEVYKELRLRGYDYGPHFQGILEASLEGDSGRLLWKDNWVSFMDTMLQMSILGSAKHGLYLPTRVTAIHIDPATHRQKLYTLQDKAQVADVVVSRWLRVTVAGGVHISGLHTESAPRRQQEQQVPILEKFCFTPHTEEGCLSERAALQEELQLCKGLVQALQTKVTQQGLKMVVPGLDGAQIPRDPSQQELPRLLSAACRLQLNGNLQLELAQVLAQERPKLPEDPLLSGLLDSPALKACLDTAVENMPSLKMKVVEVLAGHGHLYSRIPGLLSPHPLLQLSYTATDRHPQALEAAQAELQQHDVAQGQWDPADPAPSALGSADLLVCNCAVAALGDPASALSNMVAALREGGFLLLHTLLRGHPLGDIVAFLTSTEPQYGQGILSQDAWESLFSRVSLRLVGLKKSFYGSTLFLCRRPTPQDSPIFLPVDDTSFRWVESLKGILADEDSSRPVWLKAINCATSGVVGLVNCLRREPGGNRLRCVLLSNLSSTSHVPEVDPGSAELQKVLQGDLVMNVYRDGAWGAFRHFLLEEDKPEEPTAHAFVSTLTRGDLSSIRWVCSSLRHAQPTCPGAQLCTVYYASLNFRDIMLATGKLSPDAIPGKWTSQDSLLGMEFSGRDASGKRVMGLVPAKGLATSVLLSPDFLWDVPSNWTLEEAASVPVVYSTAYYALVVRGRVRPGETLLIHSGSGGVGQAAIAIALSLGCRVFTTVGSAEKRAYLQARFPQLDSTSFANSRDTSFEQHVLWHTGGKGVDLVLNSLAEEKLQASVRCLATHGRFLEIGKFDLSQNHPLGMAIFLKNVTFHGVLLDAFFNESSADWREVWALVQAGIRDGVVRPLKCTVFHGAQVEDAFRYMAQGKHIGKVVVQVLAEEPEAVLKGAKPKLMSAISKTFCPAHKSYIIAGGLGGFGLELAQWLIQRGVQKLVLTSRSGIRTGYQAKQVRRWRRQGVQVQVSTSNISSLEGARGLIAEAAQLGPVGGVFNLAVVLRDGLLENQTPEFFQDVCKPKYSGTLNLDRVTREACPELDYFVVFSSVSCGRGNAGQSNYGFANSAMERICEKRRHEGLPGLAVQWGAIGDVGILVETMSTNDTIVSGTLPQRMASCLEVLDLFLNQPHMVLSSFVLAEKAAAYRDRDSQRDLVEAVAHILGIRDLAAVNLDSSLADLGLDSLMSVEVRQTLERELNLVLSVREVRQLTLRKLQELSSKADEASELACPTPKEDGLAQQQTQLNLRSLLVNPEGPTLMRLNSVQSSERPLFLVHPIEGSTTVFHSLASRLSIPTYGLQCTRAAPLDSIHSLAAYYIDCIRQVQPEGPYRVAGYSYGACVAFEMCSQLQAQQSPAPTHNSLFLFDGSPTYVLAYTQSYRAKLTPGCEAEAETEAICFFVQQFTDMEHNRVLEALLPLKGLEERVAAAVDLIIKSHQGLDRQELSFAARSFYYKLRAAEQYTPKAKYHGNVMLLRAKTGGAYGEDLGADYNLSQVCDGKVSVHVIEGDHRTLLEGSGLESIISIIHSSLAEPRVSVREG
row,inhibition at 100 µM [%],Compound
1,86,"COCCCS(=O)(=O)Nc1cc(C(=O)N2CCC(c3ccc(C#N)cc3)CC2)ccc1C [Example 110, N-[5-[4-(4-cyanophenyl)piperidine-1-carbonyl]-2-methyl-phenyl]-3-methoxy-propane-1-sulfonamide]"
2,80,"Cc1ccc(C(=O)N2CCC(c3ccc(C#N)cc3)CC2)cc1NS(=O)(=O)c1ccccc1C(=O)N1CCOCC1 [Example 111, N-[5-[4-(4-cyanophenyl)piperidine-1-carbonyl]-2-methyl-phenyl]-2-(morpholine-4-carbonyl)benzenesulfonamide]"
3,79,"Cc1ccc(C(=O)N2CCC(c3ccc(C(N)=O)cc3)CC2)cc1NS(C)(=O)=O [Example 112, 4-[1-(3-methanesulfonamido-4-methyl-benzoyl)-4-piperidyl]benzamide]"
4,77,"Cc1ccc(C(=O)N2CCC(c3ccc(C#N)cc3)CC2)cc1NS(=O)(=O)c1ccccc1C(N)=O [Example 113, 2-[[5-[4-(4-cyanophenyl)piperidine-1-carbonyl]-2-methyl-phenyl]sulfamoyl]benzamide]"
5,85,"Cc1ccc(C(=O)N2CCC(c3ccc(C#N)cc3)CC2)cc1NS(=O)(=O)c1cnc(C)n1C [Example 114, N-[5-[4-(4-cyanophenyl)piperidine-1-carbonyl]-2-methyl-phenyl]-2,3-dimethyl-imidazole-4-sulfonamide]"
6,97,"Cc1ccc(C(=O)N2CCC(c3ccc(C#N)cc3)CC2)cc1NS(=O)(=O)C1CCNCC1 [Example 115, N-[5-[4-(4-cyanophenyl)piperidine-1-carbonyl]-2-methyl-phenyl]piperidine-4-sulfonamide]"
7,92,"Cc1cc(C)c(C(=O)N2CCC(c3ccc(C#N)cc3)CC2)cc1NS(=O)(=O)C1CC1 [Example 116, N-[5-[4-(4-cyanophenyl)piperidine-1-carbonyl]-2,4-dimethyl-phenyl]cyclopropanesulfonamide]"
8,98,"CCCS(=O)(=O)Nc1cc(C(=O)N2CCC(c3ccc(C#N)cc3)CC2)c(C)cc1C [Example 117, N-[5-[4-(4-cyanophenyl)piperidine-1-carbonyl]-2,4-dimethyl-phenyl]propane-1-sulfonamide]"
9,85,"CC(=O)N1CCC(S(=O)(=O)Nc2cc(C(=O)N3CCC(c4ccc(C#N)cc4)CC3)ccc2C)CC1 [Example 118, 1-acetyl-N-[5-[4-(4-cyanophenyl)piperidine-1-carbonyl]-2-methyl-phenyl]piperidine-4-sulfonamide]"
10,94,"Cc1ccc(C(=O)N2CCC(c3ccc(C#N)cc3)CC2)cc1NS(=O)(=O)C1CCN(S(=O)(=O)C(C)C)CC1 [Example 119, N-[5-[4-(4-cyanophenyl)piperidine-1-carbonyl]-2-methyl-phenyl]-1-propan-2-ylsulfonyl-piperidine-4-sulfonamide]"
11,94,"Cc1ccc(C(=O)N2CCC(c3ccc(C#N)cc3)CC2)cc1NS(=O)(=O)C1CCN(C(C)C)CC1 [Example 120, N-[5-[4-(4-cyanophenyl)piperidine-1-carbonyl]-2-methyl-phenyl]-1-propan-2-yl-piperidine-4-sulfonamide]"
12,89,"Cc1ccc(C(=O)N2CCC(c3ccc(C#N)cc3)CC2)cc1NS(=O)(=O)C1CCN(S(C)(=O)=O)CC1 [Example 121, N-[5-[4-(4-cyanophenyl)piperidine-1-carbonyl]-2-methyl-phenyl]-1-methylsulfonyl-piperidine-4-sulfonamide]"
13,98,"CCS(=O)(=O)N1CCC(S(=O)(=O)Nc2cc(C(=O)N3CCC(c4ccc(C#N)cc4)CC3)ccc2C)CC1 [Example 122, N-[5-[4-(4-cyanophenyl)piperidine-1-carbonyl]-2-methyl-phenyl]-1-ethylsulfonyl-piperidine-4-sulfonamide]"
14,85,"CCc1ccc(C(=O)N2CCC(c3ccc(C#N)cc3)CC2)cc1NS(C)(=O)=O [Example 123, N-[5-[4-(4-cyanophenyl)piperidine-1-carbonyl]-2-ethyl-phenyl]methanesulfonamide]"
15,82,"CCc1ccc(C(=O)N2CCC(c3ccc(C#N)cc3)CC2)cc1NS(=O)(=O)C1CCS(=O)(=O)C1 (stereo not shown) [Example 124, N-[5-[4-(4-cyanophenyl)piperidine-1-carbonyl]-2-ethyl-phenyl]-1,1-dioxo-thiolane-3-sulfonamide]"
16,98,"Cc1ccc(C(=O)N2CCC(c3ccc(C#N)cc3)CC2)cc1NS(=O)(=O)C1CCN(C)CC1 [Example 125, N-[5-[4-(4-cyanophenyl)piperidine-1-carbonyl]-2-methyl-phenyl]-1-methyl-piperidine-4-sulfonamide]"
17,87,"Cc1ccc(C(=O)N2CCC(c3ccc(C#N)cc3)CC2)cc1NS(=O)(=O)CCCN [Example 126, 3-amino-N-[5-[4-(4-cyanophenyl)piperidine-1-carbonyl]-2-methyl-phenyl]propane-1-sulfonamide]"

row,inhibition at 100 µM [%],Compound
1,92,"Cc1ccc(C(=O)N2CCC(c3ccc(C#N)cc3)CC2)cc1NS(=O)(=O)C1CCS(=O)(=O)C1 (stereo not shown) [Example 127, N-[5-[4-(4-cyanophenyl)piperidine-1-carbonyl]-2-methyl-phenyl]-1,1-dioxo-thiolane-3-sulfonamide]"
2,96,"Cc1ccc(C(=O)N2CCC(c3ccc(C#N)cc3)CC2)cc1NS(=O)(=O)C(C)C [Example 128, N-[5-[4-(4-cyanophenyl)piperidine-1-carbonyl]-2-methyl-phenyl]propane-2-sulfonamide]"
3,95,"Cc1ccc(C(=O)N2CCC(c3ccc(C#N)cc3)CC2)cc1NS(=O)(=O)c1ccc2c(c1)CC(=O)N2 [Example 129, N-[5-[4-(4-cyanophenyl)piperidine-1-carbonyl]-2-methyl-phenyl]-2-oxo-1,3-dihydroindole-5-sulfonamide]"
4,77,"Cc1ccc(C(=O)N2CCC(c3ccc(C#N)cc3)CC2)cc1NS(=O)(=O)CC(=O)O [Example 130, 2-[[5-[4-(4-cyanophenyl)piperidine-1-carbonyl]-2-methyl-phenyl]sulfamoyl]acetic acid]"
5,91,"Cc1ccc(C(=O)N2CCC(c3ccc(C#N)cc3)CC2)cc1NS(=O)(=O)CCCNS(=O)(=O)C(C)C [Example 131, N-[5-[4-(4-cyanophenyl)piperidine-1-carbonyl]-2-methyl-phenyl]-3-(propan-2-ylsulfonylamino)propane-1-sulfonamide]"
6,88,"Cc1ccc(C(=O)N2CCC(c3ccc(C#N)cc3)CC2)cc1NS(=O)(=O)CCCNS(C)(=O)=O [Example 132, N-[5-[4-(4-cyanophenyl)piperidine-1-carbonyl]-2-methyl-phenyl]-3-methanesulfonamido-propane-1-sulfonamide]"
7,91,"Cc1ccc(C(=O)N2CCC(c3ccc(C#N)cc3)CC2)cc1NS(=O)(=O)CCCNC(=O)c1ccccc1 [Example 133, N-[3-[[5-[4-(4-cyanophenyl)piperidine-1-carbonyl]-2-methyl-phenyl]sulfamoyl]propyl]benzamide]"
8,97,"Cc1ccc(C(=O)N2CCC(c3ccc(C#N)cc3)CC2)cc1NS(=O)(=O)CCCN1C(=O)c2ccccc2C1=O [Example 134, N-[5-[4-(4-cyanophenyl)piperidine-1-carbonyl]-2-methyl-phenyl]-3-(1,3-dioxoisoindol-2-yl)propane-1-sulfonamide]"
9,100,"CS(=O)(=O)c1ccc(C(=O)N2CCC(c3ccc(C#N)cc3)CC2)cc1NS(=O)(=O)Cc1ccccc1 [Example 135, N-[5-[4-(4-cyanophenyl)piperidine-1-carbonyl]-2-methylsulfonyl-phenyl]-1-phenyl-methanesulfonamide]"
10,94,"CC(=O)NCCCS(=O)(=O)Nc1cc(C(=O)N2CCC(c3ccc(C#N)cc3)CC2)ccc1C [Example 136, N-[3-[[5-[4-(4-cyanophenyl)piperidine-1-carbonyl]-2-methyl-phenyl]sulfamoyl]propyl]acetamide]"
11,97,"COC(=O)C(C)S(=O)(=O)Nc1cc(C(=O)N2CCC(c3ccc(C#N)cc3)CC2)ccc1C (stereo not shown) [Example 137, Methyl 2-[[5-[4-(4-cyanophenyl)piperidine-1-carbonyl]-2-methyl-phenyl]sulfamoyl]propanoate]"
12,100,"Cc1ccc(C(=O)N2CCC(c3ccc(C#N)cc3)CC2)cc1NS(=O)(=O)C(C)CO (stereo not shown) [Example 138, N-[5-[4-(4-cyanophenyl)piperidine-1-carbonyl]-2-methyl-phenyl]-1-hydroxy-propane-2-sulfonamide]"
13,83,"Cc1ccc(C(=O)N2CCC(c3ccc(C#N)cc3)CC2)cc1NS(=O)(=O)c1cn(C)nc1C [Example 139, N-[5-[4-(4-cyanophenyl)piperidine-1-carbonyl]-2-methyl-phenyl]-1,3-dimethyl-pyrazole-4-sulfonamide]"
14,100,"Cc1ccc(C(=O)N2CCC(c3ccc(C#N)cc3)CC2)cc1NS(=O)(=O)c1ccn(C)n1 [Example 140, N-[5-[4-(4-cyanophenyl)piperidine-1-carbonyl]-2-methyl-phenyl]-1-methyl-pyrazole-3-sulfonamide]"
15,93,"Cc1ccc(C(=O)N2CCC(c3ccc(C#N)cc3)CC2)cc1NS(=O)(=O)CCCNCc1cccnc1 [Example 141, N-[5-[4-(4-cyanophenyl)piperidine-1-carbonyl]-2-methyl-phenyl]-3-(pyridin-3-ylmethylamino)propane-1-sulfonamide]"
16,98,"CCn1ncc(S(=O)(=O)Nc2cc(C(=O)N3CCC(c4ccc(C#N)cc4)CC3)ccc2C)c1C [Example 142, N-[5-[4-(4-cyanophenyl)piperidine-1-carbonyl]-2-methyl-phenyl]-1-ethyl-5-methyl-pyrazole-4-sulfonamide]"
17,88,"COC(=O)CCS(=O)(=O)Nc1cc(C(=O)N2CCC(c3ccc(C#N)cc3)CC2)ccc1C [Example 144, Methyl 3-[[5-[4-(4-cyanophenyl)piperidine-1-carbonyl]-2-methyl-phenyl]sulfamoyl]propanoate]"
